In US8497278B2, “Imidazo[1,2-a]pyridine compounds” (priority 2008, dated 2013):

Tests used:
[1] = test system: central benzodiazepine receptors; test: Central benzodiazepine receptor binding (test of Speth et al.); conditions: 1000 nM of the compound
How it was run: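 Radioligand binding by the Speth et al. method. Specific binding is total minus nonspecific binding, the latter measured with excess unlabelled ligand. Compounds screened at 1.0E-09, 1.0E-07 and 1.0E-05 M in single determination; values given as percent inhibition at 1000 nM compound.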

[2] = biological target: T1, α1 subtype containing GABA-A receptors (Homo sapiens, UniProt P14867+P18507); test: Two-electrode voltage clamp electrophysiology in Xenopus oocytes, potentiation of GABA EC20 response, α1; type: cell-based; conditions: 100 nM compound; for activation at 0.1 µM: read-out: Percentage of potentiation alpha1
T1 construct: expressed in transfected cells; host or cells: Xenopus laevis oocytes, cRNA injected
How it was run: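 Potentiation of the GABA EC20 current by 100 nM compound is the read-out, recorded by two-electrode voltage clamp at −80 mV in oocytes carrying human α1, α2, α3 or α5 with β3 and γ2L. Baseline came from three 20-s applications of 60 μM GABA.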

[3] = biological target: T2, α2 subtype containing GABA-A receptors (Homo sapiens, UniProt P18507+P47869); test: Two-electrode voltage clamp electrophysiology in Xenopus oocytes, potentiation of GABA EC20 response, α2; type: cell-based; conditions: 100 nM compound; for activation at 0.1 µM: read-out: Percentage of potentiation alpha2
T2 construct: expressed in transfected cells; host or cells: Xenopus laevis oocytes, cRNA injected
Experimental: Electrophysiology protocol: Oocytes were prepared from adult female Xenopus laevis frogs. cRNA encoding human α1, α2, α3, α5, β3 and γ2L GABAA receptor subunits was injected into the cytoplasm of stage 5 or 6 oocytes using the Robocyte Robot (Multi Channel Systems, Reutlingen, Germany). Two-electrode voltage clamp recordings were made in 96-well plates using the Robocyte Robot. Oocytes were impaled using recording heads with two glass electrodes containing 1.5 M potassium acetate and 0.5 M KCl and held at a membrane potential of −80 mV. Oocytes were continually perfused with a ND96 solution (96 mM NaCl, 2 mM KCl, 0.1 mM CaCl2, and 5 mM HEPES, pH 7.5) using a Gilson 222 XL Liquid Handler and Gilson Minipuls 3 Peristaltic Pump (Gilson Medical Electronics, Middleton, Wis., USA). The protocol consisted of three 20-s applications of GABA that gave a 20% of the maximum response (EC20: 60 μM) to allow for headroom to determine a baseline GABA response. To assess the potentiation, oocytes were first exposed to a single 1 μM chlordiazepoxide (CDP) as a potentiation standard. Oocytes with insufficient expression levels (currents below threshold) or insufficient γ2L subunit incorporation (judged by rapid desensitization upon GABA application, or by insufficient potentiation by CDP) were not included in analysis. Following this control application, a given oocyte was exposed to test compounds at 100 nM concentrations. Only one concentration of one compound was tested per oocyte. […] One skilled in the art will recognize that subtypes contribute to the effects of GABA-A modulators. Such that compounds favoring different subtypes can have different therapeutic effects. The magnitude of modulation, for example, partial modulators can influence the effects in vivo. “++” indicates a greater modulation that “+” so that at any given subtype “++” inducates a greater amount of modulation for that subtype. In some embodiments, modulation favoring alpha 1 relative to alpha2 and/or alpha 3 can have sedative hypnotic effects. In other embodiments, compounds with reduced selectivity of alpha 1 can express anxiolytic effects with less sedation. Compounds with selectivity for alpha 5 can have memory/cognition enhancing effects.

T2 sequence (P47869 29-451): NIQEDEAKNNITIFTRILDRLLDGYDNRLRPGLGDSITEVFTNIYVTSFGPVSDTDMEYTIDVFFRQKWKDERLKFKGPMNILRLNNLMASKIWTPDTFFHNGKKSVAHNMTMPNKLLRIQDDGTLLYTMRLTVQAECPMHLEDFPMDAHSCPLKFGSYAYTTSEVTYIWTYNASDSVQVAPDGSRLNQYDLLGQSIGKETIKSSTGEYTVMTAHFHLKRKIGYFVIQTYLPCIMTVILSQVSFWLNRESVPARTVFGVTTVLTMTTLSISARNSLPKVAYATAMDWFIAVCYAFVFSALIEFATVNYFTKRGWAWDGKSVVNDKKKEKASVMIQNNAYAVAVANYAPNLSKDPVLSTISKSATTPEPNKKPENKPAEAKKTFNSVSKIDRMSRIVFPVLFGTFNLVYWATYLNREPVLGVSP
T2 sequence (P28472 26-473 partner): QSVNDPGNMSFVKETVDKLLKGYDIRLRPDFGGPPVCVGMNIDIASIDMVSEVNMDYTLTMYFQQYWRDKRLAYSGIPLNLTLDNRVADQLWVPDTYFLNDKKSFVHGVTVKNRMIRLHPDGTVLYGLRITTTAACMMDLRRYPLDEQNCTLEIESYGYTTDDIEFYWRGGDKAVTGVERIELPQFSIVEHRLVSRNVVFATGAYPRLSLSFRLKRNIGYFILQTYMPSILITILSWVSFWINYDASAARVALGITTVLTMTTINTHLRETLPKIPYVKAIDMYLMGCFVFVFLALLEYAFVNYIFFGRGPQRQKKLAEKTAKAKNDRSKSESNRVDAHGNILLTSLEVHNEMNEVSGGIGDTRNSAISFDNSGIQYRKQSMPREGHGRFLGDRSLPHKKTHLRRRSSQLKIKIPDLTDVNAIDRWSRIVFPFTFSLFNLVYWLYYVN
T2 sequence (P18507 40-475): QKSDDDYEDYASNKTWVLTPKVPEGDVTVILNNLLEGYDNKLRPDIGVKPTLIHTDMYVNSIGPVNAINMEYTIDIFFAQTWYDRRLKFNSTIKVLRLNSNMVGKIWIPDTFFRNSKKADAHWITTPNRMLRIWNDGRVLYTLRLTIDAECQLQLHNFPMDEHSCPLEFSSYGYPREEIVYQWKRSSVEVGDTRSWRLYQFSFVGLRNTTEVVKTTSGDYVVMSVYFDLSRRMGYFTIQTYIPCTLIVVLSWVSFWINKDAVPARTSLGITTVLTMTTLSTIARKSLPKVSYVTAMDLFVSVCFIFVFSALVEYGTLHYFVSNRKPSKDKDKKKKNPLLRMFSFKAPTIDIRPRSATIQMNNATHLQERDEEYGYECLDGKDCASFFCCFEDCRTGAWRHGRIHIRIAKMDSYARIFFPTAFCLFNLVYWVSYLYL
T1 sequence (P14867 28-456): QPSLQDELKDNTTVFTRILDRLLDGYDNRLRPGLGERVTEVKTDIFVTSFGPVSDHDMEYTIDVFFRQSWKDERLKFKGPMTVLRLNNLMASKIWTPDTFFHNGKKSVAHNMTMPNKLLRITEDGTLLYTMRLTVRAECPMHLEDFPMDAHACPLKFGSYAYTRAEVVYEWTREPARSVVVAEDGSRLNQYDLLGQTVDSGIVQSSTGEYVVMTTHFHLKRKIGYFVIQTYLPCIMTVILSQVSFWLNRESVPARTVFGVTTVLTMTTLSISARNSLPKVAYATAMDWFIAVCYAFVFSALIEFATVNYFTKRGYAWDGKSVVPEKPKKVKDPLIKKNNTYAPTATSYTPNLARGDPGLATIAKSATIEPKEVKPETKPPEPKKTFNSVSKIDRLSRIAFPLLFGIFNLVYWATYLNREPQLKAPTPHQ
T1 sequence (P28472 26-473 partner): as the sequence (P28472 26-473 partner) above
T1 sequence (P18507 40-475): as the sequence (P18507 40-475) above

Q: How did the “% Inhibition at 1000 nM for CBZD” value [1] turn out when Fc1ccc(-c2nc3ccc(Cl)cn3c2Cn2cncn2)cc1 [Compound 62, 3-((1H-1,2,4-triazol-1-yl)methyl)-6-chloro-2-(4-fluorophenyl)H-imidazo[1,2-a]pyridine] was run?
A: The value was “++ (percentage of inhibition of central BZD site binding is greater than 80% in the presence of 1000 nM of the compound)”.

Q: And the “Percentage of potentiation alpha1” value [2]?
A: Its value is “+ (percentage of potentiation is greater than or equal to 10% but less than 50% in the presence of 100 nM of the compound)”.

Q: What about the “Percentage of potentiation alpha2” value [3] of the same compound?
A: Its value is 0 (percentage of potentiation is between about 10% to about −10%).

Q: Which results are given for Cc1ccc2nc(-c3ccc(F)cc3)c(Cn3cncn3)n2c1 [Compound 63, 3-((1H-1,2,4-triazol-1-yl)methyl)-2-(4-fluorophenyl)-6-methylH-imidazo[1,2-a]pyridine]?
A: % Inhibition at 1000 nM for CBZD [1]: ++ (percentage of inhibition of central BZD site binding is greater than 80% in the presence of 1000 nM of the compound); Percentage of potentiation alpha1 [2]: + (percentage of potentiation is greater than or equal to 10% but less than 50% in the presence of 100 nM of the compound); Percentage of potentiation alpha2 [3]: 0 (percentage of potentiation is between about 10% to about −10%)

Q: What does the source list for Brc1ccc(-c2nc3ccccn3c2Cn2cncn2)cc1 [Compound 64, 3-((1H-1,2,4-triazol-1-yl)methyl)-2-(4-bromophenyl)H-imidazo[1,2-a]pyridine]?
A: % Inhibition at 1000 nM for CBZD [1]: ++ (percentage of inhibition of central BZD site binding is greater than 80% in the presence of 1000 nM of the compound); Percentage of potentiation alpha1 [2]: + (percentage of potentiation is greater than or equal to 10% but less than 50% in the presence of 100 nM of the compound); Percentage of potentiation alpha2 [3]: + (percentage of potentiation is greater than or equal to 10% but less than 50% in the presence of 100 nM of the compound)

Q: How did the “% Inhibition at 1000 nM for CBZD” value [1] turn out when CN(C)CCNC(=O)c1nccn1Cc1c(-c2ccc(Cl)cc2)nc2ccccn12 [Compound 78, 1-((2-(4-chlorophenyl)H-imidazo[1,2-a]pyridin-3-yl)methyl)-N-(2-(dimethylamino)ethyl)-1H-imidazole-2-carboxamide] was run?
A: The value was “++ (percentage of inhibition of central BZD site binding is greater than 80% in the presence of 1000 nM of the compound)”.

Q: And the “Percentage of potentiation alpha1” value [2]?
A: The value was “+ (percentage of potentiation is greater than or equal to 10% but less than 50% in the presence of 100 nM of the compound)”.

Q: What about the “Percentage of potentiation alpha2” value [3] of the same compound?
A: Its value is “+ (percentage of potentiation is greater than or equal to 10% but less than 50% in the presence of 100 nM of the compound)”.

Q: Which results are given for CNC(=O)c1ncnn1Cc1c(-c2ccc(Cl)cc2)nc2ccc(Cl)cn12 [Compound 81, 2-[6-Chloro-2-(4-chloro-phenyl)-imidazo[1,2-a]pyridin-3-ylmethyl]-2H-[1,2,4]triazole-3-carboxylic acid methylamide]?
A: % Inhibition at 1000 nM for CBZD [1]: ++ (percentage of inhibition of central BZD site binding is greater than 80% in the presence of 1000 nM of the compound); activation at 0.1 µM [2]: 10 to 50%; activation at 0.1 µM [3]: 10 to 50%

Q: Which results are given for CNC(=O)c1nccn1Cc1c(-c2ccc(Cl)cc2)nc2cccnn12 [Compound 88, 1-((2-(4-chlorophenyl)imidazo[1,2-b]pyridazin-3-yl)methyl)-N-methyl-1H-imidazole-2-carboxamide]?
A: % Inhibition at 1000 nM for CBZD [1]: ++ (percentage of inhibition of central BZD site binding is greater than 80% in the presence of 1000 nM of the compound); activation at 0.1 µM [2]: -10 to 10%; activation at 0.1 µM [3]: 10 to 50%

Q: Which “% Inhibition at 1000 nM for CBZD” value [1] does the source give for CNC(=O)c1ncnn1Cc1c(-c2ccc(Cl)cc2)nc2cccnn12 [Compound 90, 1-((2-(4-chlorophenyl)imidazo[1,2-b]pyridazin-3-yl)methyl)-N-methyl-1H-1,2,4-triazole-5-carboxamide] here?
A: Its value is “++ (percentage of inhibition of central BZD site binding is greater than 80% in the presence of 1000 nM of the compound)”.

Q: And the activation at 0.1 µM [2]?
A: The activation at 0.1 µM was 10 to 50%.

Q: What about the activation at 0.1 µM [3] of the same compound?
A: The activation at 0.1 µM was 10 to 50%.

Q: For O=C1CCN1Cc1c(-c2ccccc2)nc2ccc(Cl)cn12 [Compound 115, 1-(6-Chloro-2-phenyl-imidazo[1,2-a]pyridin-3-ylmethyl)-azetidin-2-one], which “% Inhibition at 1000 nM for CBZD” value [1] is on record?
A: Its value is “++ (percentage of inhibition of central BZD site binding is greater than 80% in the presence of 1000 nM of the compound)”.

Q: And the activation at 0.1 µM [2]?
A: The activation at 0.1 µM was 10 to 50%.

Q: What about the activation at 0.1 µM [3] of the same compound?
A: Its activation at 0.1 µM is 10 to 50%.

Q: With O=c1c2ccccc2[nH]n1Cc1c(-c2ccc(Cl)cc2)nc2ccccn12 [Compound 118, 2-((2-(4-chlorophenyl)imidazo[1,2-a]pyridin-3-yl)methyl)-1H-indazol-3(2H)-one] as the compound, how does the “% Inhibition at 1000 nM for CBZD” value [1] read?
A: The value was “++ (percentage of inhibition of central BZD site binding is greater than 80% in the presence of 1000 nM of the compound)”.

Q: And the activation at 0.1 µM [2]?
A: The activation at 0.1 µM was 10 to 50%.

Q: And the activation at 0.1 µM [3]?
A: The activation at 0.1 µM was ≥ 50%.

Q: What does the source list for Cc1cccc(=O)n1Cc1c(-c2ccc(Cl)cc2)nc2ccc(F)cn12 [Compound 120, 1-((2-(4-chlorophenyl)-6-fluoroimidazo[1,2-a]pyridin-3-yl)methyl)-6-methylpyridin-2(1H)-one]?
A: % Inhibition at 1000 nM for CBZD [1]: ++ (percentage of inhibition of central BZD site binding is greater than 80% in the presence of 1000 nM of the compound); activation at 0.1 µM [2]: ≥ 50%; activation at 0.1 µM [3]: ≥ 50%

Q: Which results are given for Cc1cccn(Cc2c(-c3ccc(Cl)cc3)nc3ccc(F)cn23)c1=O [Compound 121, 1-((2-(4-chlorophenyl)-6-fluoroimidazo[1,2-a]pyridin-3-yl)methyl)-3-methylpyridin-2(1H)-one]?
A: % Inhibition at 1000 nM for CBZD [1]: ++ (percentage of inhibition of central BZD site binding is greater than 80% in the presence of 1000 nM of the compound); activation at 0.1 µM [2]: ≥ 50%; activation at 0.1 µM [3]: ≥ 50%

Q: O=c1ccn(Cc2c(-c3ccc(Cl)cc3)nc3ccccn23)c(=O)[nH]1 [Compound 123, 1-((2-(4-chlorophenyl)imidazo[1,2-a]pyridin-3-yl)methyl)pyrimidine-2,4(1H,3H)-dione] was tested. Which “% Inhibition at 1000 nM for CBZD” value [1] did it give?
A: Its value is “++ (percentage of inhibition of central BZD site binding is greater than 80% in the presence of 1000 nM of the compound)”.

Q: And the activation at 0.1 µM [2]?
A: The activation at 0.1 µM was 10 to 50%.

Q: What about the activation at 0.1 µM [3] of the same compound?
A: The activation at 0.1 µM was 10 to 50%.

Q: For Cn1c(=O)ccn(Cc2c(-c3ccc(Cl)cc3)nc3ccccn23)c1=O [Compound 125, 1-((2-(4-chlorophenyl)imidazo[1,2-a]pyridin-3-yl)methyl)-3-methylpyrimidine-2,4(1H,3H)-dione], which “% Inhibition at 1000 nM for CBZD” value [1] is on record?
A: The value was “++ (percentage of inhibition of central BZD site binding is greater than 80% in the presence of 1000 nM of the compound)”.

Q: What about the activation at 0.1 µM [2] of the same compound?
A: The activation at 0.1 µM was -10 to 10%.

Q: And the activation at 0.1 µM [3]?
A: The activation at 0.1 µM was 10 to 50%.

Q: How did the “% Inhibition at 1000 nM for CBZD” value [1] turn out when O=c1[nH]c(=O)n(Cc2c(-c3ccc(Cl)cc3)nc3ccccn23)cc1F [Compound 127, 1-((2-(4-chlorophenyl)imidazo[1,2-a]pyridin-3-yl)methyl)-5-fluoropyrimidine-2,4(1H,3H)-dione] was run?
A: Its value is “+ (percentage of inhibition of central BZD site binding is greater than 50% but less than 80% in the presence of 1000 nM of the compound)”.

Q: And the activation at 0.1 µM [2]?
A: The activation at 0.1 µM was -10 to 10%.

Q: And the activation at 0.1 µM [3]?
A: The activation at 0.1 µM was 10 to 50%.

Q: With O=c1nc(N2CCCC2)ccn1Cc1c(-c2ccc(Cl)cc2)nc2ccccn12 [Compound 136, 1-((2-(4-chlorophenyl)imidazo[1,2-a]pyridin-3-yl)methyl)-4-(pyrrolidin-1-yl)pyrimidin-2(1H)-one] as the compound, how does the “% Inhibition at 1000 nM for CBZD” value [1] read?
A: Its value is “++ (percentage of inhibition of central BZD site binding is greater than 80% in the presence of 1000 nM of the compound)”.

Q: What about the activation at 0.1 µM [2] of the same compound?
A: Its activation at 0.1 µM is 10 to 50%.

Q: What about the activation at 0.1 µM [3] of the same compound?
A: The activation at 0.1 µM was ≥ 50%.
